Laboratory results as given in US20060154903A1, “Betulinol derivatives as anti-cancer agents” (priority 2004, published 2006).
Read-outs that look alike come from different tables or passages of the source.

Key:
[1] = system: human prostate cancer LNCaP cell line; assay: MTT cytotoxicity assay, LNCaP; type: cell-based; conditions: for Percent Killed / inhibition at 100 µM / inhibition at 10 µM / inhibition at 1 µM / Growth Inhibition %: LNCaP; for Percent Killed: Prostate (1); for inhibition at 100 µM / inhibition at 10 µM / inhibition at 1 µM: Homo sapiens, read-out: Growth Inhibition %; for inhibition at 1 µM: 1 × 10^−6 M; for Growth Inhibition %: 1 × 10^−5 (Table 12)
Protocol: (§1) The human prostate cancer LNCaP, PC-3, and DU-145 cell lines, as well as human fibroblast cell line, were obtained from the American Type Culture Collection (“ATCC”) and maintained in RPMI-1640, F-12k, and MEM mediums, respectively, supplemented with 10% FBS. Cell lines were maintained at 37° C. under a humidified atmosphere and 5% CO2 for testing of the cytotoxicity of betulinol derivatives. The cytotoxicity assay was performed using MTT assay according to the instructions of ATCC protocol. Cells 1×10^5 in 0.1 ml/well were plated in 96-well culture plates (Costar) and incubated with a different dilution of betulinol derivatives for 24, 48, and 72 hours. Ten μl of 3-[4,5-dimethylthiazol-2-yl]-2,5 diphenyl tetrazolium bromide was added into each well at the end of each incubation period. The reaction product, formazan, was dissolved in the detergent, and the absorbance was read at 540 nm (Ref).
However, these compounds were not tested on prostate cancer LNCaP cell line by NCI. […] The anti-tumor activity of the compounds was determined at three doses and the total growth inhibition kill effect as pertinent of the control at 24, 48, and 72 hours as presented in Table 11.

[2] = system: human prostate cancer PC-3 cell line; assay: MTT cytotoxicity assay, PC-3; type: cell-based; conditions: for Percent Killed: Prostate (1); for Growth Inhibition %: 1 × 10^−5
Protocol: as §1

[3] = system: human prostate cancer DU-145 cell line; assay: MTT cytotoxicity assay, DU-145; type: cell-based; conditions: for Percent Killed: Prostate (1); for Growth Inhibition %: 1 × 10^−5
Protocol: as §1

[4] = system: human fibroblast cell line; type: cell-based; conditions: Fibroblasts; for Percent Killed: Prostate (1); for Growth Inhibition %: 1 × 10^−5
Protocol: as §1

[5] = system: 184B5/HER; assay: In vitro cytotoxicity, Breast (1), 184B5/HER; type: cell-based; conditions: 1 × 10^−4 M
[6] = system: DU-145; assay: Anchorage-independence growth assay in soft agar, DU-145; type: cell-based; conditions: Homo sapiens, 336 h, 1 × 10^−5 M, 14 days, read-out: Inhibition % on Anchorage-independent Growth
Protocol: (§2) Anchorage-independence growth assay was performed to determine the ability of cancer cells to form colonies in soft agar. 1.0×10^4 cancer cells were suspended in 2 ml of DMEM medium containing 0.33% agar in the presence or absence of betulinol derivatives. The compounds were overlaid on a 2 ml matrix made up of 0.6% agar. The cultures were incubated at 37° C. in a humidified environment under 5% CO2 for 14 days without medium change. The cultures were fixed in Comoy's fixative (acetic acid/100% ethanol 1:3 v/v) and the numbers of anchorage-independent, tridimentional colonies (≧40 μm diameter) formed were counted under 10× magnification (Katdare et al., Cancer Lett. 111:141-47 (1997), which is hereby incorporated by reference in its entirety).

[7] = system: PC-3; assay: Anchorage-independence growth assay in soft agar, PC-3; type: cell-based; conditions: Homo sapiens, 336 h, 1 × 10^−5 M, 14 days, read-out: Inhibition % on Anchorage-independent Growth
Protocol: as §2

[8] = system: LNCaP; assay: Anchorage-independence growth assay in soft agar, LNCaP; type: cell-based; conditions: Homo sapiens, 336 h, 1 × 10^−5 M, 14 days, read-out: Inhibition % on Anchorage-independent Growth
Protocol: as §2

[9] = system: LNCaP xenografts; type: in vivo, athymic mice
Protocol: All the animal studies were performed according to the guidelines and approval of the Institutional Animal Care and Use Committee and Research Animal Resource Center of Weill Medical College of Cornell University, New York. Twelve mice of 13 weeks of age were purchased from The National Cancer Institute (NCI) and were housed in a pathogen-free environment under controlled conditions of light and humidity and with free access to food and water. LNCaP cells were grown in RPMI-1640 with 10% FBS until 80-90% confluent. Cells were scraped into PBS and collected by centrifugation. The LNCaP cell pellets were suspended in Matrigel (Ref) at 2.5×10^7 cells/ml. Mice were injected subcutaneously (“s.c.”) with 200 μl (5×10^6 cells) of the cell suspension at one site on the flank. Visible tumor grew after 7-8 days following implantation and mice were divided into three groups of four mice each.
Mice received s.c. injection daily for ten days. […] Tumors were measured daily with calipers, and tumor volumes were calculated by the formula: π/6(1×w×h). Animals were also weighed daily and monitored for general health status and vital signs of possible toxicity due to treatment. At the end of the treatment period, the animals were sacrificed and tumors were excised, weighed and prepared for immunohistochemical and histological studies. […]

[10] = Solubility in DMSO diluted with culture medium (GC); conditions: for State of solution: 0.5 mg/mL (1 × 10^−3 mol/L), culture medium
Protocol: The residue was dissolved in chloroform analyzed on GC.
Ethyl ether was then evaporated. […] Concentration of drug in the above solutions was analyzed by GC and determined from the standard solubility curve.

[11] = Solubilization in PBS containing human γ-globulin, human albumin and ethanol; conditions: for Observation: 1 × 10^−3 mol/L
Excerpt: Human γ-Globulin and human albumin are two major biocompatible components in human serum.

[12] = system: Bladder cancer cells; conditions: 1 × 10^−4 M; Bladder (1), cell line not given

In the case of `C=C(C)C1CCC2(C(=O)O)CC[C@]3(C)[C@H](CC[C@@H]4[C@@]5(C)CCC(=O)C(C)(C)[C@@H]5CC[C@]43C)C12` (some centres unmarked) [Compound 4, Betulonic Acid], the “Percent Killed” value ([1]; 1 × 10^−4 M) is reported as 81%, the “Percent Killed” value ([1]; 1 × 10^−5 M) is reported as 75% and the inhibition at 100 µM ([1]; 24 h, 24 hours, 1 × 10^−4 M) is reported as 70.4 ± 19.1%. It also gave an inhibition at 10 µM ([1]; 24 h, 24 hours, 1 × 10^−5 M) of 24.2 ± 10.8%, an inhibition at 1 µM ([1]; 24 h, 24 hours) of 9.2 ± 6.1% and an inhibition at 100 µM ([1]; 48 h, 48 hours, 1 × 10^−4 M) of 81 ± 12.6%. The inhibition at 10 µM ([1]; 48 h, 48 hours, 1 × 10^−5 M) was 69.5 ± 20.2%, the inhibition at 1 µM ([1]; 48 h, 48 hours) was 27.8 ± 11.4% and the inhibition at 100 µM ([1]; 72 h, 72 hours, 1 × 10^−4 M) was 80.8 ± 15.8%. The inhibition at 10 µM ([1]; 72 h, 72 hours, 1 × 10^−5 M) was 88.4 ± 7.96%, the inhibition at 1 µM ([1]; 72 h, 72 hours) was 45 ± 12.3% and the “Growth Inhibition %” value ([1]; 24 hours) was 38 ± 8%. The “Growth Inhibition %” value ([1]; 48 hours) was 75 ± 9%, the “kill effects on LNCaP cell growth compared to the other compounds” value ([1]; MTT assay, compounds 1-8) was “highest kill effects” and the “Percent Killed” value ([2]; 1 × 10^−4 M) was 54%. The “Percent Killed” value ([2]; 1 × 10^−5 M) was 41%, the “Growth Inhibition %” value ([2]; 24 hours) was 9.7% and the “Growth Inhibition %” value ([2]; 48 hours) was 41.1%. For the same molecule, the “Percent Killed” value ([3]; 1 × 10^−4 M) was 54%, the “Percent Killed” value ([3]; 1 × 10^−5 M) was 51% and the “Growth Inhibition %” value ([3]; 24 hours) was 33%. The “Growth Inhibition %” value ([3]; 48 hours) was 51%, the “Percent Killed” value ([4]; 1 × 10^−4 M) was “No effect” and the “Percent Killed” value ([4]; 1 × 10^−5 M) was “No effect”. For the same molecule, the “Growth Inhibition %” value ([4]; 24 hours) was 0%, the “Growth Inhibition %” value ([4]; 48 hours) was 0% and the “Percent Killed” value [5] was “Toxic”. The inhibition at 10 µM [6] was 12.5%, the inhibition at 10 µM [7] was 26.1% and the inhibition at 10 µM [8] was 0%. For the same molecule, the “health status and vital signs of the mice during treatment” value ([9]; mouse, in vivo) was “no adverse effects on vital signs”, the “increase of tumor volume on day 10 compared to day 1” value ([9]; s.c. daily for ten days, 20 mg/kg, LNCaP xenografts in athymic mice) was 20.3% and the State of solution ([10]; 3% DMSO in total Vol.) was “Suspension”. For the same molecule, the State of solution ([10]; 9% DMSO in total Vol.) was “Suspension”, the State of solution ([10]; 14% DMSO in total Vol.) was “Cloudy” and the State of solution ([10]; 20% DMSO in total Vol.) was “clear solution”. The State of solution ([10]; 20% DMSO in total Vol., listed as BA) was “Clear”, the “amount dissolved out of 3 mg” value ([10]; 1% DMSO in culture medium containing 10% FBS, nominal 1×10^−3 mol/L) was 0.4 mg and the Observation ([11]; ethanol 220 μL, γ-globulin PBS 1.48 mL, albumin PBS 0.49 mL) was “Cloudy”. The Observation ([11]; ethanol 280 μL, γ-globulin PBS 0 mL, albumin PBS 2.50 mL) was “Complete”, the Observation ([11]; ethanol 280 μL, γ-globulin PBS 2.50 mL, albumin PBS 0 mL) was “Suspension” and the Observation ([11]; ethanol 308 μL, γ-globulin PBS 0.69 mL, albumin PBS 2.07 mL) was “Almost Clear”. For the same molecule, the Observation ([11]; ethanol 330 μL, γ-globulin PBS 1.48 mL, albumin PBS 1.48 mL) was “Little Cloudy”, the Observation ([11]; ethanol 352 μL, γ-globulin PBS 0.32 mL, albumin PBS 2.85 mL) was “Clear” and the concentration completely dissolved ([11]; PBS containing 4% human albumin, final concentration of 10% ethanol) was 1×10^−3 mol per liter. For the same molecule, the concentration completely dissolved ([11]; human albumin PBS solution with 10% ethanol) was 0.001 mol/L and the “Percent Killed” value [12] was 37%.
